Experimental data published in patent US6469000B1, “1,3-diheterocyclic metalloprotease inhibitors” (The Procter & Gamble Co., priority 1996, dated 2002).

Experiments:
Format in all cases: in vivo
[1] = test system: human subject suffering from osteoarthritis; assay: Example B: capsule given daily to a subject with osteoarthritis; conditions: capsule containing 70 mg of Example 3 daily for 5 years, 90 kg person
Description: A capsule for oral administration, according to the present invention, is made comprising:
A human subject weighing 90 kg (198 lbs), suffering from osteoarthritis, is treated by a method of this invention. Specifically, for 5 years, a capsule containing 70 mg of Example 3 is administered daily to said subject.

[2] = test system: patient suffering from chemical burns; assay: Example D: topical composition applied to chemical burns; conditions: 0.20% w/v Compound of Example 3, topical, at each dressing change (b.i.d.)
Source text: An topical composition for local administration, according to the present invention, is made comprising:
A patient suffering from chemical burns applies the composition at each dressing change (b.i.d.).

[3] = test system: human subject suffering from rheumatoid arthritis; assay: Example A: tablets given orally to a subject with rheumatoid arthritis; conditions: tablet with 15 mg Example 9, three tablets per day orally for 2 years, 60 kg person
Description: A tablet composition for oral administration, according to the present invention, is made comprising:
A human subject weighing 60 kg (132 lbs), suffering from rheumatoid arthritis, is treated by a method of this invention. Specifically, for 2 years, a regimen of three tablets per day is administered orally to said subject.

SMILES | erosion/fibrillation of the articular cartilage, examined via orthoscopy [1] | scarring after chemical burns [2] | inflammation at the end of the treatment period [3] | mobility at the end of the treatment period [3]
COc1ccc(S(=O)(=O)N2CCCN(S(C)(=O)=O)C2C(=O)NO)cc1 (racemic) [Example 3, N-hydroxy 1-[(4-methoxyphenyl)sulfonyl]-3-[methylsulphonyl]-hexahydro-pyrimidine-2(R, S)-carboxamide] | no further advancement of erosion/fibrillation of the articular cartilage | substantially diminished | – | –
COc1ccc(S(=O)(=O)N2CC(C)(C)C(=O)N(Cc3ccccc3)C2C(=O)NO)cc1 (stereo not shown) [Example 9, N-hydroxy-1-[(4-methoxyphenyl)sulfonyl]-3-phenylmethyl-4-oxo-5,5-dimethyl-hexahydro-pyrimidin-2-carboxamide] | – | – | reduced inflammation | improved mobility without concomitant pain
